pEC50: −log10 of the molar value. Structures can show the parent of a compound that is named as a salt. Where two headings read alike, the source gives them in different places.
What was measured:
[1] = amide bond, HATU, DMF
RSV ATCC VR-1540 (A2) = assay: microbe, parasite or virus in culture; assay type: cell-based; settings: human respiratory syncytial virus, HEp-2, 96 h; Hep2 cells, incubated for 4 days, CPE detected with XTT assay (absorbance 450 nm); read-out: EC50 (nmol/L) against RSV A2 strain
[2] = tested on: F protein D486N mutant strain of RSV A2 strain; assay type: cell-based, respiratory syncytial virus (RSV); settings: Hep2 cells, incubated for 4 days, CPE detected with XTT assay (absorbance 450 nm); read-out: EC50 (nmol/L) against F protein D486N mutant strain of RSV A2 strain
D486N mutant strain = settings: D486N mutant vs wild strain; cited from earlier work

With CN1CCCCS(=O)(=O)NC(C)(c2ccccc2)C(=O)N2CCCC[C@H]2c2cc3nc(Cl)cc1n3n2 (some centres unmarked) the ring closure, yield of all isomers ([1]; from CN(CCCCS(=O)(=O)NC(C)(C(=O)O)c1ccccc1)c1cc(Cl)nc2cc([C@@H]3CCCCN3)nn12, 10.2 mM, 70.0 °C, 2.5 h) was 80.4%.
CN1CCNC(=O)COc2ccc(F)cc2C(=O)N2CCCC[C@H]2c2cc3nc(Cl)cc1n3n2 showed a ring closure, yield of all isomers ([1]; from CN(CCNC(=O)COc1ccc(F)cc1C(=O)O)c1cc(Cl)nc2cc([C@@H]3CCCCN3)nn12, 10.0 mM, 25.0 °C, 15.0 h) of 64.8%.
Cc1ccc2c(c1)C(=O)N1CCCCC1c1cc3nc(C4CC(O)C4)cc(n3n1)N(C)CCNC(=O)CO2 [Example 117, (18aS)-13-(trans-3-hydroxycyclobutyl)-2,11-dimethyl-8,9,10,11,19,20,21,22-octahydro-18aH,24H-18,15-(metheno)pyrido[2,1-l]pyrimido[6,1-h][1,4,7,9,10,13]benzoxapentaazacyclohexadecine-7,24(6H)-dione] showed a pEC50 (RSV ATCC VR-1540 (A2)) of 9.11 and a pEC50 [2] of 9.13.
For [2H]C([2H])([2H])c1ccc2c(c1)C(=O)N1CCCCC1c1cc3nc(C4CC(O)C4)cc(n3n1)N(C([2H])([2H])[2H])CCNC(=O)CO2 [Example 120, (18aS)-13-(trans-3-hydroxycyclobutyl)-2,1I-bis[trideuteriomethyl]-8,9,10,11,19,20,21,22-octahydro-18aH,24H-18,15-(metheno)pyrido[2,1-l]pyrimido[6,1-h][1,4,7,9,10,13]benzoxapentaazacyclohexadecine-7,24(6H)-dione], the pEC50 (RSV ATCC VR-1540 (A2)) was 9.35 and the pEC50 [2] was 9.19.
Cc1ccc2c(c1)C(=O)N1CCCCC1c1cc3nc(N4CCC(N)C4)cc(n3n1)N(C)CCCCO2 [Example 244, (23aS)-18-[(3S)-3-aminopyrrolidin-1-yl]-8,16-dimethyl-1,3,4,13,14,15,16,23a-octahydro-2H, 6H,12H-23,20-(metheno)pyrido[2,1-k]pyrimido[6,1-g][1,6,8,9,12]benzoxatetraazacyclopentadecin-6-one hydrochloride] showed a pEC50 (RSV ATCC VR-1540 (A2)) of 8.40 and a pEC50 [2] of 8.13.
CN1CCCS(=O)(=O)Nc2ccc(Cl)cc2C(=O)N2CCCCC2c2cc3nc(N4CCC(N)C4)cc1n3n2 [Example 312, (23aS)-18-[(3S)-3-aminopyrrolidin-1-yl]-8-chloro-16-methyl-1,3,4,13,14,15,16,23a-octahydro-2H,6H-23,20-(metheno)-12h-pyrido[2,1-k]pyrimido[6,1-g][2,1,6,8,9,12]benzothiapentaazacyclopentadecine-6,12,12(11H)-trione] showed a pEC50 (RSV ATCC VR-1540 (A2)) of 8.39 and a pEC50 [2] of 7.50.
For Cc1cn2nc([C@@H]3CCCCN3C(=O)c3cc(Cl)ccc3NS(C)(=O)=O)cc2nc1N1CC[C@H](N)C1 [GS-5806], the “reduction of activity against the D486N mutant strain compared to the activity against the wild strain” value (D486N mutant strain) is listed as “approximately 1000 times”.
